Laboratory results: US10543223B2, “Mannose derivatives useful for treating pathologies associated with adherent E. coli” (ENTEROME, priority 2015, dated 2020)
pKd: −log10 of the molar value. ≈ marks a conversion by molar mass, not a printed value. Blank lines part the entries; values can stand above or below the compound they belong to.

Tests used:
[1] = Stability test in 0.1 M HCl (anomerization followed by 1H NMR); assay type: physicochemical; conditions: for isomerization to the β-mannose derivative under acidic conditions: samples at t=0, 1 h, 2 h and 8 h, 1H NMR in D2O
Experimental: Compound 6 of WO 2014/016361 was dissolved in 0.1 M HCl and sample were freeze dried at t=0, 1 h, 2 h and 8 h (see FIG. 10). […] Indeed, under the acidic conditions, an equimolar α/β mixture at T=0 anomerize to a 1/3 α/β mixture at T=8 h.

AIEC strain LF82 = test: Adhesion assay of AIEC LF82 strain on intestinal epithelial cells T84 (pre- and post-incubation); assay type: cell-based, E. coli; conditions: pre-incubation (10 μM) and post-incubation (50 μM) protocols
Experimental: E. coli strain LF82 isolated from an ileal biopsy of a CD patient was used as the AIEC reference strain. Bacteria were grown overnight at 37° C. in Luria-Bertani (LB) broth, and a bacterial suspension was prepared at a concentration of 1.5×10^8 bacteria/mL in phosphate buffer saline (PBS) for adhesion assays. The human intestinal cell line T84, purchased from American Type Culture Collection (ATCC, CCL-248), was maintained in an atmosphere containing 5% CO2 at 37° C. in the culture medium recommended by ATCC. T84 cells were seeded in 48-well tissue culture plates at a density of 1.5×10^5 cells/well and incubated at 37° C. for 48 h.
AIEC reference strain LF82 was incubated for 1 h with HM or thiazole-bearing mannosides at final concentrations of 0.1, 1, or 10 μM, then bacteria/mannosides solution were incubated with T84 cells in order to have a multiplicity of infection (MOI) of 10 bacteria per cell (1.5×10^6 bacteria/well) for 3 h with. Effects of mannoside treatment were compared with HM. Monolayers were washed three times with PBS and lysed with 1% Triton X-100 (Sigma) in deionized water. Samples were diluted and plated onto LB agar plates to determine the number of colony-forming units (CFU). […]

[2] = test system: uropathogenic E. coli strain UTI89; test: Hemagglutination inhibition assay, guinea pig erythrocytes, E. coli strain UTI89; assay type: cell-based; conditions: for MIC: Escherichia coli, read-out: minimal inhibitory concentration (MIC) / inhibition titer of haemagglutination; for inhibition of UTI89-induced hemagglutination (in words): FIG. 1
Experimental: Interaction of E. coli FimH adhesins with the glycocalyx of guinea pig erythrocytes forms a crosslinked network in the wells. Glycoconjugates, added in a 2-fold dilution series, prevent the agglutination reaction. The inhibition titer is defined as the lowest concentration of the glycoconjugate at which hemagglutination is still inhibited. Several strains of E. coli were grown statically overnight in LB at 37° C., washed three times in ice-cold phosphate-buffered saline, and redissolved. A 2-fold dilution of glycoconjugates with a starting concentration of 1 mM was prepared in 25 μL of PBS with 10% of DMSO. Importantly, the pipet tip was changed at every dilution step to avoid carry-over. Next, the bacterial solution (25 μL) was added to the 2-fold dilution series of the compound. Finally, 50 μL of guinea pig red blood cells, washed and diluted in the buffer to 5% of the blood volume, was added to reach 100 μL. The plates were left on ice for one night before read-out.
Inhibition of E. coli Strain UTI89 Isolated from Patient with Urinary Tract Infection.
The anti-adhesive capacity of the inhibitors was evaluated against ten E. coli strains isolated from CD patients, urinary tract infections, and hip prosthesis infections.

[3] = biological target: T1, FimH lectin domain (residues 1-158) from E. coli strain UTI89 (Escherichia coli, UniProt Q1R2J4); test: Isothermal titration calorimetry of FimH lectin domain; assay type: binding
T1 construct: FimH lectin domain (residues 1-158) from E. coli strain UTI89; made in house
Experimental: The recombinantly expressed FimH lectin domain (residues 1-158) from E. coli strain UTI89 was purified as described previously by Wellens et al. The FimH protein solution was put into the measurement cell (1452 μl) of a VP-ITC microcalorimeter (Malvern), at a concentration of 11.83 μM in the ITC working buffer (20 mM Na-Hepes at pH 7.4 and 150 mM NaCl). Compound 3c at 100 μM concentration was titrated into the FimH solution using 38 injections of 7 μl, leading to 38 heat peaks measured in μcal/sec (FIG. 12). The heat peaks were integrated (kCal/mole of injectant) to be presented in an enthalpogram with 38 data points (FIG. 12), used for the fitting to the model of one kind of binding sites (Microcal ITC Origin software) in order to derive the affinity (K) and the stoichiometry (N) of the interaction (FIG. 13). Using the constant absolute temperature (T) of the experiment, the entropic contribution ΔS was calculated (FIG. 13).

[4] = Faeces concentrations and recovery after IV and PO administration to rats; assay type: in vivo, Sprague Dawley rats; conditions: Sprague Dawley, rat, faeces, po, 10 mg/kg, PO 10 mg/kg, 0-24 h, mean of 3 rats; read-out: Recovery in faeces, mean (quantity found in faeces out of the administered quantity)
Experimental: Plasma and faeces concentrations after administration of Compound 1b and for compound 13 of WO 2014/016361 at 1 mg/kg by intravenous route and 10 mg/kg by oral route to Sprague Dawley rats Blank rat faeces are homogenized with 3 volumes of UHQ water until obtention of a paste. Then 100 μL of the homogenate are spiked with the molecules and precipitated with 300 μL of acetonitrile. The concentration ranges tested are: • 0.5 ng/mL to 1000 ng/mL for plasma, • 4 to 2000 ng/g for faeces, corresponding to 1 to 500 ng/mL of faeces homogenate. 3. In-Life Part After administration, the animals are placed in individual metabolic cages in order to collect faeces samples during 24 hours. Faeces samples are collected over the 24 hours of the experiment. They are precisely weighed and 3 volumes of UHQ water are added. The mixture is homogeneized until obtention of a paste. Then 100 μL of the homogenate are taken and extracted with 300 μL of Acetonitrile. Analysis is performed using LC-MS/MS determination according to previous analytical test results.

cystitis murine model = conditions: Wellens et al, 2008; cited from earlier work
AIEC = conditions: in vivo; cited from earlier work

α/β mixture ratio ([1]; T=8 h, equimolar α/β mixture at T=0): 1/3
SMILES: CC(=O)c1cnc(N[C@H]2O[C@H](CO)[C@@H](O)[C@H](O)[C@@H]2O)s1 [6 of WO 2014/016361]
isomerization to the β-mannose derivative under acidic conditions [1]: isomerizes to the corresponding β-mannose derivative

isomerization to the β-mannose derivative under acidic conditions [1]: does not isomerize
SMILES: CC(=O)c1cnc(C[C@H]2O[C@H](CO)[C@@H](O)[C@H](O)[C@@H]2O)s1 [Compound 1a, 5-acetyl-2-((α-D-mannopyranos-1-yl)methyl)thiazole]

SMILES: CC(=O)c1cnc(SC[C@H]2O[C@H](CO)[C@@H](O)[C@H](O)[C@@H]2O)s1 [Compound 2b, 5-acetyl-2-((α-D-mannopyranos-1-yl)methylthioxy)thiazole]
potency to inhibit attachment of LF82 to T84 cells compared with heptylmannoside (AIEC strain LF82): more potent than the reference compound heptylmannoside

SMILES: CC(=O)c1cnc(NC[C@H]2O[C@H](CO)[C@@H](O)[C@H](O)[C@@H]2O)s1 [Compound 2c]
potency relative to HM at disrupting E. coli promoted hemagglutination ([2]; E. coli UTI89): 8 fold | MIC [2]: 0.098 µM (≈ 0.0312 µg/mL) | inhibition of UTI89-induced hemagglutination (in words) [2]: potent inhibitors

SMILES: Cc1nc(-c2cnccn2)sc1C(=O)c1cnc(NC[C@H]2O[C@H](CO)[C@@H](O)[C@H](O)[C@@H]2O)s1 [Compound 2d, 5-(4-methyl-2-(pyrazin-2-yl)thiazol-5-ylcarbonyl)-2-(((α-D-mannopyranosyl)methyl)amino)-thiazole]
MIC [2]: 3.12 µM (≈ 1.5 µg/mL) | inhibition of UTI89-induced hemagglutination (in words) [2]: potent inhibitors

SMILES: Cc1nc(NCc2cn(CC3OC(CO)C(O)C(O)C3O)nn2)sc1C(=O)c1cnc(NCC2OC(CO)C(O)C(O)C2O)s1 (centres unmarked) [Compound 3c]
pKd [3]: 7.26 | ΔH ([3]; ITC): -23.630 ± 0.3755 kcal/mol | ΔS ([3]; ITC, calculated using T of the experiment): −46.8 cal/mol/deg | n (stoichiometry) ([3]; ITC, one kind of binding sites model): 0.874+/−0.00868 sites

dose excreted [4]: 52.4%
SMILES: Cc1nc(-c2cnccn2)sc1C(=O)c1cnc(N[C@H]2O[C@H](CO)[C@@H](O)[C@H](O)[C@@H]2O)s1 [Compound 13 of WO 2014/016361, reference compound]

SMILES: CCCCCCCO[C@H]1O[C@H](CO)[C@@H](O)[C@H](O)[C@@H]1O [HM, heptylmannose]
inhibition of UTI89-induced hemagglutination (in words) [2]: potent inhibitors | concentration required to observe a significant bacterial load reduction (cystitis murine model): millimolar | effect with AIEC in CEABAC 10 Crohn's disease model (AIEC): no effect
